A value given as a limit tells only on which side of the number the result lay.

In one assay the target is BRD4 domain 1 (Homo sapiens, UniProt O60885). Nature of the assay: Kd determination of inhibitors binding to BRD4 domain 1 (Epic label-free platform). To be noted: direct binding to immobilized BRD4 domain 1; tripling dilution series from 20µM; about 1hr equilibrium; rounded to whole number; read-out: Epic Kd BRD41. The method in brief:
(§1)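 Label-free resonant waveguide (Epic) direct binding to BRD4 domain 1 or domain 2 amine-coupled via EDC/Sulfo-NHS at 150 µg/mL in 20 mM HEPES pH 7. Binding response taken as wavelength shift (pm) between baseline and second read; Kd from fit to a single-site binding isotherm.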

Another assay concerns the target BRD4 domain 2 (Homo sapiens, UniProt O60885). The experiment in a line: Kd determination of inhibitors binding to BRD4 domain 2 (Epic label-free platform). To be noted: direct binding to immobilized BRD4 domain 2; tripling dilution series from 20µM; about 1hr equilibrium; rounded to whole number. The method in brief:
as §1

As a reminder, the Kd is the constant that tells how readily two partners part at equilibrium. Consider `Cc1noc(C)c1-c1cc(S(=O)(=O)NC2CCCC2)c2cc(NCc3cccnc3)c(=O)[nH]c2c1` [Compound 67, N-cyclopentyl-7-(3,5-dimethylisoxazol-4-yl)-2-oxo-3-((pyridin-3-ylmethyl)amino)-1,2-dihydroquinoline-5-sulfonamide], for which the Kd on BRD4 domain 1 is 0.444 µM; at BRD4 domain 2, 0.404 µM.
Taken in the same sequence, the figures for `Cc1noc(C)c1-c1cc(S(=O)(=O)NC2CC2)c2cccnc2c1` [Compound 8, N-cyclopropyl-7-(3,5-dimethylisoxazol-4-yl)quinoline-5-sulfonamide] were 3.95 µM and 2.25 µM.
In the case of `Cc1noc(C)c1-c1cc(S(=O)(=O)N[C@H]2C[C@@H]3CC[C@H]2C3)c2cccnc2c1` [Compound 38, N-((1S,2S,4R)-bicyclo[2.2.1]heptan-2-yl)-7-(3,5-dimethylisoxazol-4-yl)quinoline-5-sulfonamide], the values for the Kd on BRD4 domain 1 and at BRD4 domain 2 were 3.14 µM and 3.49 µM, respectively.
The matching figures for `Cc1noc(C)c1-c1cc(S(=O)(=O)NC2CCCC2)c2cc(NCCN(C)C)c(=O)[nH]c2c1` [Compound 88, N-cyclopentyl-3-((2-(dimethylamino)ethyl)amino)-7-(3,5-dimethylisoxazol-4-yl)-2-oxo-1,2-dihydroquinoline-5-sulfonamide]: 1.06 µM and 0.943 µM.
The matching figures for `CC(=O)NCCNC(=O)[C@@H]1CCC[C@H]1NS(=O)(=O)c1cc(-c2c(C)noc2C)cc2ncccc12` [Compound 73, (1R,2R)-N-(2-acetamidoethyl)-2-(7-(3,5-dimethylisoxazol-4-yl)quinoline-5-sulfonamido)cyclopen tanecarboxamide]: over 20 µM and 16.7 µM.
For `Cc1noc(C)c1-c1cc(S(=O)(=O)NCC2CC(F)(F)C2)c2cccnc2c1` [Compound 11, N-((3,3-difluorocyclobutyl)methyl)-7-(3,5-dimethylisoxazol-4-yl)quinoline-5-sulfonamide], the Kd is 12.8 µM on BRD4 domain 1 and over 20 µM on BRD4 domain 2.
Taken in the same sequence, the figures for `Cc1noc(C)c1-c1cc(S(=O)(=O)N[C@@H]2CCC[C@H]2C(=O)NC2CCCC2)c2cccnc2c1` [Compound 35, (1R,2R)-N-cyclopentyl-2-(7-(3,5-dimethylisoxazol-4-yl)quinoline-5-sulfonamido)cyclopen tanecarboxamide] were over 20 µM and 19.7 µM.
In the case of `Cc1noc(C)c1-c1cc(S(=O)(=O)NC2CCCC2)c2cc(NCCO)c(=O)[nH]c2c1` [Compound 57, N-cyclopentyl-7-(3,5-dimethylisoxazol-4-yl)-3-((2-hydroxyethyl)amino)-2-oxo-1,2-dihydroquinoline-5-sulfonamide], the Kd at BRD4 domain 1 turned out to be 0.444 µM; at BRD4 domain 2, 0.477 µM.
Regarding `Cc1noc(C)c1-c1cc(S(=O)(=O)NC2CCCC2)c2cc(-c3cnc(C)n3C)c(=O)[nH]c2c1` [Compound 30, N-cyclopentyl-3-(1,2-dimethyl-1H-imidazol-5-yl)-7-(3,5-dimethylisoxazol-4-yl)-2-oxo-1,2-dihydroquinoline-5-sulfonamide], the Kd on BRD4 domain 1 amounted to 6.4 µM; at BRD4 domain 2, 1.7 µM.
Regarding `Cc1noc(C)c1-c1cc(S(=O)(=O)NC2CCCC2)c2cc(-c3ccc(F)cc3)c(=O)[nH]c2c1` [Compound 28, N-cyclopentyl-7-(3,5-dimethylisoxazol-4-yl)-3-(4-fluorophenyl)-2-oxo-1,2-dihydroquinoline-5-sulfonamide], the dissociation constant (Kd) was found to be 0.348 µM on BRD4 domain 1 and 0.555 µM on BRD4 domain 2.
Taken in the same sequence, the figures for `Cc1noc(C)c1-c1cc(S(=O)(=O)NC2CCCC2)c2cc(NC(C)C)c(=O)[nH]c2c1` [Compound 77, N-cyclopentyl-7-(3,5-dimethylisoxazol-4-yl)-3-(isopropylamino)-2-oxo-1,2-dihydroquinoline-5-sulfonamide] were 0.896 µM and 0.61 µM.
In the case of `Cc1noc(C)c1-c1cc(S(=O)(=O)NC2CCCC2)c2cc(NCCN3CCOCC3)c(=O)[nH]c2c1` [Compound 90, N-cyclopentyl-7-(3,5-dimethylisoxazol-4-yl)-3-((2-morpholinoethyl)amino)-2-oxo-1,2-dihydroquinoline-5-sulfonamide], the Kd is 0.652 µM at BRD4 domain 1 and 0.56 µM at BRD4 domain 2.
Turning to `Cc1noc(C)c1-c1cc(S(=O)(=O)N[C@H]2CC[C@@H](O)C2)c2cccnc2c1` [Compound 19, 7-(3,5-dimethylisoxazol-4-yl)-N-((1S,3R)-3-hydroxycyclopentyl)q uinoline-5-sulfonamide], the results for the dissociation constant (Kd) at BRD4 domain 1 and at BRD4 domain 2 were 16.6 µM and 7.72 µM, respectively.
With `Cc1noc(C)c1-c1cc(S(=O)(=O)N[C@@H]2CCC[C@H]2C(=O)N2CCNCC2)c2cccnc2c1` [Compound 47, 7-(3,5-dimethylisoxazol-4-yl)-N-((1R,2R)-2-(piperazine-1-carbonyl)cyclopentyl) quinoline-5-sulfonamide], the Kd was 3.16 µM on BRD4 domain 1 and 2.27 µM on BRD4 domain 2.
In the case of `Cc1noc(C)c1-c1cc(S(=O)(=O)N[C@@H]2CCC[C@H]2C(=O)NCc2nccn2C)c2cccnc2c1` [Compound 42, (1R,2R)-2-(7-(3,5-dimethylisoxazol-4-yl)quinoline-5-sulfonamido)-N-((1-methyl-1H-imidazol-2-yl)methyl)cyclopentan ecarboxamide], the Kd came out at 16.2 µM at BRD4 domain 1 and 6.84 µM on BRD4 domain 2.
As for `Cc1noc(C)c1-c1cc(S(=O)(=O)NC2CCCC2)c2cc(NCC(O)CO)c(=O)[nH]c2c1` (stereo not shown) [Compound 93, N-cyclopentyl-3-((2,3-dihydroxypropyl)amino)-7-(3,5-dimethylisoxazol-4-yl)-2-oxo-1,2-dihydroquinoline-5-sulfonamide], the Kd is 0.951 µM at BRD4 domain 1 and 0.417 µM at BRD4 domain 2.
The matching figures for `Cc1noc(C)c1-c1cc(S(=O)(=O)NC2CCCC2)c2cc(-c3ccccn3)c(=O)[nH]c2c1` [Compound 36, N-cyclopentyl-7-(3,5-dimethylisoxazol-4-yl)-2-oxo-3-(pyridin-2-yl)-1,2-dihydroquinoline-5-sulfonamide]: 1.45 µM and 0.718 µM.
Turning to `Cc1noc(C)c1-c1cc(S(=O)(=O)N[C@@H]2CCC[C@H]2O)c2cccnc2c1` [Compound 26, 7-(3,5-dimethylisoxazol-4-yl)-N-((1R,2R)-2-hydroxycyclopentyl)q uinoline-5-sulfonamide], the Kd on BRD4 domain 1 amounted to 4.09 µM; on BRD4 domain 2, 3.55 µM.
Consider `CCN[C@H]1CCC[C@H]1NS(=O)(=O)c1cc(-c2c(C)noc2C)cc2ncccc12` [Compound 53, 7-(3,5-dimethylisoxazol-4-yl)-N-((1R,2S)-2-(ethylamino)cyclopentyl)quinoline-5-sulfonamide], for which the Kd at BRD4 domain 1 is over 20 µM; at BRD4 domain 2, 8.64 µM.
In the case of `Cc1noc(C)c1-c1cc(S(=O)(=O)NC2CC2)c2ccc(N3CCNCC3)nc2c1` [Compound 80, N-cyclopropyl-7-(3,5-dimethylisoxazol-4-yl)-2-(piperazin-1-yl)quinoline-5-sulfonamide], the Kd on BRD4 domain 1 worked out at 1.73 µM; at BRD4 domain 2 it was 1.39 µM.
Taken in the same sequence, the figures for `CC(=O)N[C@H]1CCC[C@H]1NS(=O)(=O)c1cc(-c2c(C)noc2C)cc2ncccc12` [Compound 51, N-((1S,2R)-2-(7-(3,5-dimethylisoxazol-4-yl)quinoline-5-sulfonamido)cyclopentyl)acetamide] were 7.62 µM and 6.45 µM.
Regarding `Cc1noc(C)c1-c1cc(S(=O)(=O)NC2CCCC2)c2ccc(C(F)F)nc2c1` [Compound 2, N-cyclopentyl-2-(difluoromethyl)-7 - (3,5-dimethylisoxazol-4-yl)quinoline-5-sulfonamide], the Kd amounted to 3.38 µM on BRD4 domain 1 and 1.32 µM at BRD4 domain 2.
In the case of `Cc1noc(C)c1-c1cc(S(=O)(=O)NC2CCCC2)c2cc(NCC3CC3)c(=O)[nH]c2c1` [Compound 76, N-cyclopentyl-3-((cyclopropylmethyl)amino)-7-(3,5-dimethylisoxazol-4-yl)-2-oxo-1,2-dihydroquinoline-5-sulfonamide], the Kd on BRD4 domain 1 was 0.416 µM; at BRD4 domain 2, 0.497 µM.
Turning to `Cc1noc(C)c1-c1cc(S(=O)(=O)NC2CCCC2)c2ccc(N3CCNCC3)nc2c1` [Compound 44, N-cyclopentyl-7-(3,5-dimethylisoxazol-4-yl)-2-(piperazin-1-yl)quinoline-5-sulfonamide], the Kd at BRD4 domain 1 was found to be 0.799 µM; at BRD4 domain 2, 0.504 µM.
Taken in the same sequence, the figures for `Cc1noc(C)c1-c1cc(S(=O)(=O)NC2(C#N)CCCC2)c2cccnc2c1` [Compound 52, N-(1-cyanocyclopentyl)-7-(3,5-dimethylisoxazol-4-yl)quinoline-5-sulfonamide] were over 20 µM and 11.7 µM.
In the case of `Cc1noc(C)c1-c1cc(S(=O)(=O)NC2CCCC2)c2cc(N3CCN(C)CC3)c(=O)[nH]c2c1` [Compound 65, N-cyclopentyl-7-(3,5-dimethylisoxazol-4-yl)-3-(4-methylpiperazin-1-yl)-2-oxo-1,2-dihydroquinoline-5-sulfonamide], the results for the Kd on BRD4 domain 1 and at BRD4 domain 2 were 0.981 µM and 0.546 µM, respectively.
As for `Cc1noc(C)c1-c1cc(S(=O)(=O)NC2CCCC2)c2cc(N3CCNCC3)c(=O)[nH]c2c1` [Compound 56, N-cyclopentyl-7-(3,5-dimethylisoxazol-4-yl)-2-oxo-3-(piperazin-1-yl)-1,2-dihydroquinoline-5-sulfonamide], the Kd was found to be 0.933 µM on BRD4 domain 1 and 0.611 µM at BRD4 domain 2.
Regarding `Cc1noc(C)c1-c1cc(S(=O)(=O)N[C@@H]2CCC[C@H](O)C2)c2cccnc2c1` [Compound 20, 7-(3,5-dimethylisoxazol-4-yl)-N-((1R,3S)-3-hydroxycyclohexyl)qu inoline-5-sulfonamide], the figures for the Kd on BRD4 domain 1 and at BRD4 domain 2 were 5.75 µM and 4.79 µM, respectively.
On to `Cc1noc(C)c1-c1cc(S(=O)(=O)NC2CCCC2)c2cc(N3CCOC3=O)c(=O)[nH]c2c1` [Compound 64, N-cyclopentyl-7-(3,5-dimethylisoxazol-4-yl)-2-oxo-3-(2-oxooxazolidin-3-yl)-1,2-dihydroquinoline-5-sulfonamide], for which the Kd on BRD4 domain 1 worked out at 4.85 µM; on BRD4 domain 2, 3.21 µM.

Source of the values: patent publication EP3074389B1, “QUINOLINE DERIVATIVES AS BROMODOMAIN INHIBITORS” (Gilead Sciences, Inc., priority 2013, dated 2015).
